Laboratory results taken from patent publication US7795227B2, “Compounds and methods for treating seizure disorders” (Wisconsin Alumni Research Foundation, priority 2004, dated 2010).
Where “and” joins values, the source holds several entries; their conditions need not be identical. Identical values can stand only once. Entries after “also recorded” stand apart in the source; their conditions may differ.

Experiments:
[1] = tested on: rat hippocampal slices (CA3 synchronized burst discharges); experiment: Synchronized bursting induced by elevated [K+]o in hippocampal slices, CA3 extracellular recording; format: cell-based
Protocol: In these experiments, postnatal day 14 to 35 male Sprague-Dawley rats were anesthetized and decapitated. Brains were removed and transferred to ice cold artificial cerebrospinal fluid (ACSF), comprising 124 mM NaCl, 5 mM KCl, 1.25 mM NaH2PO4, 1.5 mM MgSO4, and 26 mM NaHCO3, supplemented with 10 mM glucose), which was continuously bubbled with 95% O2 and 5% CO2. Transverse hippocampal slices (˜400 microns) were prepared on a Leica VT1000s vibratome (Wetzlar Germany). The slices were allowed to recover for 1 hour at room temperature and were then transferred to an interface recording chamber at 34° C. in ACSF with 7.5 mM [K^+]o. Extracellular recordings were made from the CA3 region with an Axioclamp 2B (Axon Instruments, Forest City, Calif.) using a glass microelectrode filled with 150 mM NaCl. Data were recorded and analyzed using PClamp8 (Axon Instruments).
Synchronized bursting was induced by incubating hippocampal slices in ACSF supplemented with to a final concentration of 7.5 mM [K^+]o, Baseline recordings were obtained after exposure to elevated [K^+]o for 1 hour and the burst frequency had stabilized.
The reduction in burst frequency is shown in graphical form in FIG. 7.
The effects of glucose deprivation on synchronized burst discharges were examined in rat hippocampal slices ex corpora using the methods described in Example 2. Spontaneous synchronized bursts were recorded in CA3 in ACSF containing 10 mM glucose supplemented with 7.5 mM [K^+]o for ˜1 hr, and then in glucose-free ACSF supplemented with 10 mM lactate or 10 mM pyruvate. […] The interburst interval increased to 24 seconds when the slice was exposed to glucose-free ACSF supplemented with 10 mM lactate, indicating an anticonvulsant effect of glucose deprivation.

[2] = tested on: kindled seizures evoked by perforant path stimulation; experiment: Kindling model of temporal lobe epilepsy, perforant path stimulation; format: in vivo, rat
Excerpt: In the kindling model, repeated activation of neural pathways in vivo induces progressive electrographic and behavioral seizures, permanent increases in susceptibility to additional seizures, and eventually spontaneous seizures (Goddard et al., 1969, Experimental Neurology 25: 295-330; Pinel, 1978, Experimental Neurology 58: 190-202; Wada et al., 1975, Canadian Journal of Neurological Sciences 2: 477-492; Sayin et al. 2003, Journal of Neuroscience 23: 2759-2768). Kindling has become the most extensively studied experimental model of epilepsy (McNamara, 1999, Nature 399: A15-22). In a typical kindling protocol, periodic stimulation delivered once or twice daily gradually evokes an increasing synchronous electrical afterdischarge (AD) or electrographic seizure accompanied by a behavioral seizure. […] Kindling can be induced by electrical or chemical activation of a variety of neural pathways in a range of species that include amphibians, mammals, and primates (Morrell and Tsuru, 1976, Electroencephalography and Clinical Neurophysiology 40: 1-11); Wada and Mizoguchi, 1984; Epilepsia 25: 278-287). Because kindling induces permanent alterations in the brain and can be evoked in a range of species by a variety of stimuli, it has been regarded as a phenomenon of long-term brain plasticity as well as a model of temporal lobe epilepsy. The behavioral features of brief repeated kindled seizures evoked by limbic stimulation resemble human partial complex seizures with secondary generalization. In the early stages of limbic kindling in rodents, each stimulation evokes an AD accompanied by a brief partial seizure, which progresses to stimulus-evoked secondary generalized seizures. This feature is an example of the progressive functional alterations induced by kindling that are epileptogenic.
Adult male Sprague-Dawley rats (weighing between 250-350 g, obtained from Harlan, Madison, Wis.) were anesthetized with ketamine (80 mg/kg intramuscularly) and xylazine (10 mg/kg intramuscularly), and were stereotactically implanted with an insulated stainless steel bipolar electrode for stimulation and recording. The electrode was implanted in the perforant path (8.1 mm posterior, 4.4 mm lateral, 3.5 mm ventral with respect to bregma), and was fixed to the skull with acrylic. After a two-week recovery period following electrode placement, unrestrained, awake, implanted rats received twice-daily kindling stimulation (5 days per week) with a one-second train of 62-Hertz (Hz) biphasic constant current 1.0-millisecond (ms) square wave pulses to induce kindled seizures. The electroencephalogram was recorded from the bipolar electrode, which was switched to the stimulator for the delivery of kindling stimulation. On the first day of stimulation, each rat received a stimulus train of 500 microAmperes (μA). If an AD was evoked, this intensity was used in subsequent stimulations. If no AD was evoked, the stimulation intensity was increased in a sequence of 500, 700, 900, 1000, 1100, 1200, 1300 and 1400 μA until an AD was evoked. The intensity that initially evoked AD was used for subsequent stimulations. […] If AD was evoked by 3 consecutive stimulations at a given intensity, the stimulation intensity was then decreased by 100 μA decrements. At stimulation intensities below 500 μA, the intensity was decreased in 30 μA decrements. These stimulation procedures deliver stimulation at the lowest intensity required to evoke an AD (Sutula and Steward, 1986, Journal of Neurophysiology 56: 732-746; Cavazos et al., 1991, Journal of Neuroscience 11: 2795-2803).
The anticonvulsant and antiepileptic effects of 2-DG were confirmed in rats that experienced kindled seizures evoked by perforant path stimulation according to the protocol noted above. […]

[3] = tested on: neuropathic pain (mechanical allodynia); experiment: Loose sciatic nerve ligation model of neuropathic pain, Von Frye filament test; format: in vivo, rat
Protocol: The effects of 2-deoxy-D-glucose (2-DG), which has acute anticonvulsant properties in hippocampal slices and prevents the consequences of repeated evoked network synchronization in the kindling model of epilepsy, were evaluated for treatment of neuropathic pain. The effects of 2-DG were examined in the loose sciatic nerve ligation rat model of neuropathic pain. […] Effects of 2-DG on neuropathic pain were assessed by measurement of hindlimb withdrawal latency to mechanical stimulation and development of mechanical allodynia according to standardized methods.
Male Sprague-Dawley rats (Harlan, 250-350 g) were behaviorally tested by measuring hindlimb withdrawal latency in response to mechanical stimulation of the hindlimb with standardized Von Frye filaments of increasing diameter, in order to verify that all animals initially had normal responses prior to surgical procedures and treatments. In the Von Frye method, animals are placed on a wire mesh floor, and the hindlimb is stroked with standardized filaments of increasing diameter until withdrawal is observed. The size of the filament evoking withdrawal is the Von Frye score. Withdrawal to smaller filaments indicates hyperalgesia, or mechanical allodynia when normally innocuous filaments produce withdrawal, and are regarded as measures of pain. Baseline withdrawal scores were used to assess effects of sciatic ligation and treatment with 2-DG.
After obtaining baseline measurements, animals were then anesthetized with a combination of ketamine 70 mg/kg IP and xylazine […]. The sciatic nerve was exposed at mid-thigh level by blunt dissection through the biceps femoris muscles. […] The incision was closed in layers, and during the immediate post-operative period the animals were monitored for signs of behavior that would signify unexpected and undesirable reaction to the surgical procedure (loss of weight or appetite, lack of grooming or loss of locomotion).
Hindlimb withdrawal responses were assessed postoperatively to verify that mechanical allodynia and hyperalgesia were induced as a result of the surgical ligation. […]

O=C(O)CI [iodoacetate, reference compound]
Synchronized bursting in presence of iodoacetate ([1]; 200 uM iodoacetate, ACSF with 10 mM glucose or 10 mM lactate, FIGS. 6 and 7): reduced synchronized bursting
Reduction in epileptic bursts with lactate as alternative energy source ([1]; iodoacetate, lactate provided, FIG. 7): persists

CC(O)C(=O)O (stereo not drawn) [lactate]
Interburst interval ([1]; glucose-free ACSF with 10 mM substitute energy source, 7.5 mM [K+]o, baseline in 10 mM glucose ~3.8 seconds): 24 s

O=CC[C@@H](O)[C@H](O)[C@H](O)CO [2-DG, 2-deoxy-D-glucose]
Duration of anticonvulsant effects after stopping 2-DG ([2]; 250 mg/kg twice daily for 3 months, twice daily stimulation continued): approximately 8 weeks
Effective dose in rats ([2]; intraperitoneal or subcutaneous administration): 250 mg/kg
Time AD threshold remained elevated after stopping twice daily 2-DG ([2]; kindled rat, 250 mg/kg IP): ≤ 6 weeks
Effect on AD threshold compared to saline controls ([2]; rats n=15 vs saline n=12, p<0.001 ANOVA, FIG. 2A): increased the AD threshold
ADs to Class 4 ([2]; rats, 2-DG 250 mg/kg IP 30 minutes before stimulation): 20.9 +/− 4.0 ADs
ADs to Class 5 (first Class V generalized tonic clonic seizure) ([2]; rats, 2-DG 250 mg/kg IP 30 minutes before stimulation, n=11, p<0.03 vs saline): 27.7±6.0 ADs and 27.7 +/− 6.0 ADs
ADs to Class 3 ([2]; rats, 2-DG 250 mg/kg IP 30 minutes before stimulation, number of afterdischarges to reach seizure class): 16.7 +/− 3.1 ADs
AD threshold during repeated 2-DG administration ([2]; single kindled rat, 250 mg/kg IP, from 200 μA, about 2-3 weeks of twice daily stimulation): ~1500 μA
AD threshold after restarting 2-DG ([2]; single kindled rat, FIG. 3, 250 mg/kg IP, rose from ~200 μAmps during 2-3 weeks): 1500 μAmps
Progressive reduction in AD threshold with repeated ADs ([2]; single rat, FIG. 3, 250 mg/kg IP prior to each stimulation, after the third evoked AD): appeared to prevent the progressive reduction in AD threshold
Burst frequency (epileptic bursts) after bath application ([1]; 1 mM 2-DG, 7.5 mM [K+]o, FIG. 4B/4C): reduction in epileptic bursts; also recorded: decreased progressively
Persistence of anticonvulsant effect after return to ACSF without 2-DG ([1]; ACSF with 7.5 mM [K+]o, FIG. 5B): ≤ 60 min
Day of administration after which pain-reducing effects diminished or were extinguished ([3]; 250 mg/kg IP): 4 to 5 days and 4 days
Motor or behavioral impairments ([3]; 250 mg/kg IP): did not result in any apparent motor or behavioral impairments
Mechanical allodynia (Von Frye score) compared to saline ([3]; 250 mg/kg IP 30 minutes prior to testing, n=10, p=0.044 day 1, p<0.001 day 2): acutely reduced mechanical allodynia
